Measured values: PubChem BioAssay AID330 (DTP/NCI, 2004)
Where “and” joins values, the source holds several entries; their conditions need not be identical. Identical values can stand only once. Inconclusive results and toxic doses are left out.

System: P388 leukemia ip, CD2F1 mice, survival T/C
Assay: NCI In Vivo Anticancer Drug Screen. Data for tumor model P388 Leukemia (intraperitoneal) in CD2F1 (CDF1) mice
Conditions: endpoint: median survival time, higher = longer survival
How it was run: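 Mice carrying the transplanted tumor received test compound or vehicle. Survival was recorded in each group, and the value is the treated-group measurement divided by that of the vehicle-treated control group.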

[1] = dose: 50.0 mg/kg/injection, schedule: Q01DX005 (ip), vehicle: saline with Tween-80
[2] = dose: 100.0 mg/kg/injection, schedule: Q01DX005 (ip), vehicle: saline with Tween-80
[3] = dose: 50.0 mg/kg/injection, schedule: Q01DX009 (ip), vehicle: saline with Tween-80
[4] = dose: 100.0 mg/kg/injection, schedule: Q01DX009 (ip), vehicle: saline with Tween-80
[5] = dose: 200.0 mg/kg/injection, schedule: Q01DX009 (ip), vehicle: saline with Tween-80
[6] = dose: 100.0 mg/kg/injection, schedule: Q04DX002 (ip), vehicle: saline
[7] = dose: 200.0 mg/kg/injection, schedule: Q04DX002 (ip), vehicle: saline
[8] = dose: 400.0 mg/kg/injection, schedule: Q04DX002 (ip), vehicle: saline

CCC1(O)CC2C3C(C(=O)OC)=C4Nc5ccccc5C45CCN(C31)C25 (stereo not given)
T/C (dose: 1.0 mg/kg/injection, schedule: Q01DX001 (ip), vehicle: water): 100 % of control | T/C (dose: 2.0 mg/kg/injection, schedule: Q01DX001 (ip), vehicle: water): 100 % of control | T/C (dose: 4.0 mg/kg/injection, schedule: Q01DX001 (ip), vehicle: water): 101 % of control | T/C (dose: 8.0 mg/kg/injection, schedule: Q01DX001 (ip), vehicle: water): 92 % of control | T/C (dose: 16.0 mg/kg/injection, schedule: Q01DX001 (ip), vehicle: water): 95 % of control | T/C (dose: 32.0 mg/kg/injection, schedule: Q01DX001 (ip), vehicle: water): 99 % of control

CCOC(=O)C(C)c1ccccc1-c1cccc(OC)c1 (stereo not given)
T/C [1]: 94 % of control | T/C [2]: 97 % of control | T/C (dose: 200.0 mg/kg/injection, schedule: Q01DX005 (ip), vehicle: saline with Tween-80): 103 % of control

CC(=O)OCc1cc[n+](C)cc1
T/C (dose: 12.5 mg/kg/injection, schedule: Q01DX009 (ip), vehicle: water): 100 % of control | T/C (dose: 25.0 mg/kg/injection, schedule: Q01DX009 (ip), vehicle: water): 105 % of control | T/C (dose: 50.0 mg/kg/injection, schedule: Q01DX009 (ip), vehicle: water): 101 % of control | T/C (dose: 100.0 mg/kg/injection, schedule: Q01DX009 (ip), vehicle: water): 102 % of control | T/C (dose: 200.0 mg/kg/injection, schedule: Q01DX009 (ip), vehicle: water): 93 % of control | T/C (dose: 400.0 mg/kg/injection, schedule: Q01DX009 (ip), vehicle: water): 112 % of control

Cc1ccc(C(=O)NNC(O)C(F)(F)F)cc1 (stereo not given)
T/C (dose: 100.0 mg/kg/injection, schedule: Q04DX003 (ip), vehicle: Klucel (hydroxypropylcellulose) (HPC)): 97 % of control | T/C (dose: 200.0 mg/kg/injection, schedule: Q04DX003 (ip), vehicle: Klucel (hydroxypropylcellulose) (HPC)): 102 % of control

Cc1ccccc1N=C(CCl)Nc1ccccc1C
T/C [1]: 94 % of control | T/C [2]: 99 % of control

CC(C)Oc1ccc2c(c1)Sc1ccc(Cl)cc1N2
T/C (dose: 100.0 mg/kg/injection, schedule: Q04DX003 (ip), vehicle: saline with Tween-80): 100 % of control | T/C (dose: 200.0 mg/kg/injection, schedule: Q04DX003 (ip), vehicle: saline with Tween-80): 100 % of control | T/C (dose: 400.0 mg/kg/injection, schedule: Q04DX003 (ip), vehicle: saline with Tween-80): 100 % of control

NC(=O)c1sc(SCc2ccccc2)c(-[n+]2ccccc2)c1N
T/C (dose: 25.0 mg/kg/injection, schedule: Q04DX002 (ip), vehicle: saline with Tween-80): 105 % of control | T/C (dose: 50.0 mg/kg/injection, schedule: Q04DX002 (ip), vehicle: saline with Tween-80): 105 % of control

COc1cc(Br)cc(OC)c1N=Cc1ccccc1
T/C [3]: 102 % of control | T/C [4]: 97 % of control | T/C [5]: 100 % of control

O=c1[nH]cnc2c1ccc1[nH]ncc12
T/C (dose: 6.25 mg/kg/injection, schedule: Q01DX005 (ip), vehicle: saline with Tween-80): 88 % of control | T/C (dose: 12.5 mg/kg/injection, schedule: Q01DX005 (ip), vehicle: saline with Tween-80): 90 % of control | T/C (dose: 25.0 mg/kg/injection, schedule: Q01DX005 (ip), vehicle: saline with Tween-80): 86 % of control | T/C [1]: 97 % of control | T/C [2]: 99 % of control

Cc1c2ccncc2c(C)c2c1[nH]c1ccc(O)cc12
T/C (dose: 6.25 mg/kg/injection, schedule: Q01DX009 (ip), vehicle: saline): 111 % of control | T/C (dose: 6.25 mg/kg/injection, schedule: Q01DX009 (ip), vehicle: suspension in saline): 150 % of control | T/C (dose: 12.5 mg/kg/injection, schedule: Q01DX009 (ip), vehicle: saline): 169 % of control | T/C (dose: 12.5 mg/kg/injection, schedule: Q01DX009 (ip), vehicle: suspension in saline): 167 % of control

CC1(C)NC(=O)N2CCCC(=O)CC21 (stereo not given)
T/C (dose: 100.0 mg/kg/injection, schedule: Q01DX001 (ip), vehicle: saline): 96 % of control | T/C (dose: 200.0 mg/kg/injection, schedule: Q01DX001 (ip), vehicle: saline): 95 % of control | T/C (dose: 400.0 mg/kg/injection, schedule: Q01DX001 (ip), vehicle: saline): 96 % of control

O=[N+]([O-])c1ccc(N2CCN(CCO)CC2)c2c1no[n+]2[O-]
T/C (dose: 3.75 mg/kg/injection, schedule: Q01DX009 (ip), vehicle: saline): 98 % of control and 100 % of control and 86 % of control | T/C (dose: 7.5 mg/kg/injection, schedule: Q01DX009 (ip), vehicle: saline): 100 % of control and 97 % of control | T/C (dose: 15.0 mg/kg/injection, schedule: Q01DX009 (ip), vehicle: saline): 103 % of control (2×) and 90 % of control | T/C (dose: 30.0 mg/kg/injection, schedule: Q01DX009 (ip), vehicle: saline): 100 % of control and 101 % of control and 95 % of control | T/C (dose: 50.0 mg/kg/injection, schedule: Q01DX009 (ip), vehicle: suspension in saline): 109 % of control

Cn1ccc(=O)n(C)c1=O
T/C [6]: 107 % of control | T/C [7]: 107 % of control | T/C [8]: 109 % of control

O=C(OCC(O)CO)c1c(Cl)c(Cl)c(Cl)c(Cl)c1-c1c2cc(I)c(=O)c(I)c-2oc2c(I)c(O)c(I)cc12 (stereo not given)
T/C (dose: 60.0 mg/kg/injection, schedule: Q01DX005 (ip), vehicle: saline): 94 % of control | T/C (dose: 120.0 mg/kg/injection, schedule: Q01DX005 (ip), vehicle: saline): 100 % of control | T/C (dose: 240.0 mg/kg/injection, schedule: Q01DX005 (ip), vehicle: saline): 102 % of control

COCCOC(C)C(=O)C(O)S(=O)(=O)O (stereo not given)
T/C (dose: 100.0 mg/kg/injection, schedule: Q01DX009 (ip), vehicle: saline): 109 % of control | T/C (dose: 100.0 mg/kg/injection, schedule: Q04DX003 (ip), vehicle: saline): 100 % of control | T/C (dose: 200.0 mg/kg/injection, schedule: Q04DX003 (ip), vehicle: saline): 100 % of control | T/C (dose: 400.0 mg/kg/injection, schedule: Q01DX009 (ip), vehicle: saline): 154 % of control | T/C (dose: 400.0 mg/kg/injection, schedule: Q04DX003 (ip), vehicle: saline): 107 % of control

Cc1ccccc1C1(C)C(=O)c2ccccc2C1=O
T/C [6]: 101 % of control | T/C [7]: 106 % of control | T/C [8]: 100 % of control

CCN(CC)CCNc1ccc(COC(=O)NC)c2oc3ccccc3c(=O)c12
T/C (dose: 1.5 mg/kg/injection, schedule: Q01DX005 (ip), vehicle: distilled water + Tween-80): 113 % of control | T/C (dose: 3.0 mg/kg/injection, schedule: Q01DX005 (ip), vehicle: distilled water + Tween-80): 113 % of control | T/C (dose: 6.0 mg/kg/injection, schedule: Q01DX005 (ip), vehicle: distilled water + Tween-80): 113 % of control | T/C (dose: 12.5 mg/kg/injection, schedule: Q01DX005 (ip), vehicle: distilled water + Tween-80): 93 % of control

CCCCCCCCCCCCCCCCN1c2ccccc2C(C)(C)C12C=Cc1cccc([N+](=O)[O-])c1O2 (stereo not given)
T/C [3]: 92 % of control | T/C [4]: 93 % of control | T/C [5]: 88 % of control

CC(C)(O)/C=C/C(=O)[C@](C)(O)[C@H]1[C@H](O)C[C@@]2(C)[C@@H]3CC=C4[C@@H](C[C@H](O)C(=O)C4(C)C)[C@]3(C)C(=O)C[C@]12C
T/C (dose: 0.25 mg/kg/injection, schedule: Q01DX009 (ip), vehicle: saline + Tween-80 + alcohol): 118 % of control | T/C (dose: 0.25 mg/kg/injection, schedule: Q01DX009 (ip), vehicle: saline with Tween-80): 105 % of control | T/C (dose: 0.25 mg/kg/injection, schedule: Q01DX009 (ip), vehicle: saline): 113 % of control | T/C (dose: 0.5 mg/kg/injection, schedule: Q01DX009 (ip), vehicle: saline + Tween-80 + alcohol): 121 % of control | T/C (dose: 0.5 mg/kg/injection, schedule: Q01DX009 (ip), vehicle: saline with Tween-80): 108 % of control | T/C (dose: 0.5 mg/kg/injection, schedule: Q01DX009 (ip), vehicle: saline): 111 % of control | T/C (dose: 0.5 mg/kg/injection, schedule: Q01DX010 (ip), vehicle: saline): 95 % of control | T/C (dose: 0.96 mg/kg/injection, schedule: Q01DX009 (ip), vehicle: saline + Tween-80 + alcohol): 152 % of control | T/C (dose: 0.96 mg/kg/injection, schedule: Q01DX009 (ip), vehicle: saline with Tween-80): 105 % of control | T/C (dose: 1.0 mg/kg/injection, schedule: Q01DX009 (ip), vehicle: saline + Tween-80 + alcohol): 118 % of control | T/C (dose: 1.0 mg/kg/injection, schedule: Q01DX009 (ip), vehicle: saline with Tween-80): 119 % of control | T/C (dose: 1.0 mg/kg/injection, schedule: Q01DX009 (ip), vehicle: saline): 111 % of control

COc1ccc2c(c1OC)C(OC)OC(c1cc3c(cc1CCN(C)C)OCO3)C2 (stereo not given)
T/C (dose: 12.5 mg/kg/injection, schedule: Q01DX001 (ip), vehicle: saline + alcohol): 91 % of control | T/C (dose: 25.0 mg/kg/injection, schedule: Q01DX001 (ip), vehicle: saline + alcohol): 88 % of control | T/C (dose: 50.0 mg/kg/injection, schedule: Q01DX001 (ip), vehicle: saline + alcohol): 91 % of control
